Like-named read-outs stand apart in the source and are kept apart here.
Assays:
[1] = molecular target: IMP-1 (Serratia marcescens, UniProt P52699); assay: biochemical; type: biochemical; conditions: read-out: IMP-1 IC50
[2] = system: Serratia marcescens expressing IMP-1 (CL5741); assay: Antibiotic potentiation activity: synergistic concentration (MITC95) with imipenem, OD600 growth; type: cell-based; conditions: for Serratia marcescens expressing IMP-1 (CL5741) MITC95: concentration giving 95% inhibition of bacterial growth
Outline: (§1)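 Bacteria were grown overnight on agar at 35 °C, diluted 1:100 from saline into 1.1× CAMHB, then given compound with or without imipenem (4 μg/ml in assay, optionally 1 μg/ml). Endpoint: absorbance at 22–24 h.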

[3] = system: Klebsiella pneumoniae expressing VIM-1 (IHMA599644); assay: as above; type: cell-based; conditions: for Klebsiella pneumoniae expressing VIM-1 (IHMA 599644) MITC95: concentration giving 95% inhibition of bacterial growth
Outline: as §1

[4] = system: Escherichia coli expressing NDM-1 (CLB30016); assay: as above; type: cell-based; conditions: for Escherichia coli expressing NDM-1 (CLB 30016) MITC95: concentration giving 95% inhibition of bacterial growth
Outline: as §1

[5] = molecular target: NDM-1 (Klebsiella pneumoniae, UniProt C7C422); assay: biochemical; type: biochemical; conditions: read-out: NDM-1 IC50
Chain of NDM-1 (C7C422 whole entry, looked up, species assumed): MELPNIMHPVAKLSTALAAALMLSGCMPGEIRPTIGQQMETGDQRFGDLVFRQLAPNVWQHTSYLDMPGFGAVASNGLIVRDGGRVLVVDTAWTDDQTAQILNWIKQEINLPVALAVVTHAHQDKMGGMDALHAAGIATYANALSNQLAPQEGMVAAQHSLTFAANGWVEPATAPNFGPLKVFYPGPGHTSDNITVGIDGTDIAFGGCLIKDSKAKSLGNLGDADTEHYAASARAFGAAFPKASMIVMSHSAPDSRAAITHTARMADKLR

[6] = molecular target: VIM-1 (Pseudomonas aeruginosa (strain ATCC 15692 / DSM 22644 / CIP 104116 / JCM 14847 / LMG 12228 / 1C / PRS 101 / PAO1), UniProt A0A0F7KYQ8); assay: Enzyme activity: determination of IC50, fluorescence assay with CCF2-FA substrate (VIM-1); type: biochemical
[7] = IMP-1 enzyme, CCF2-FA substrate
[8] = Serratia marcescens CL5741 (IMP-1), 95% growth inhibition
[9] = Klebsiella pneumoniae IHMA599644 (VIM-1), 95% growth inhibition
[10] = (CLB30016, NDM-1), 95% growth inhibition
[11] = NDM-1 enzyme, CCF2-FA substrate
[12] = VIM-1 enzyme, CCF2-FA substrate, read-out: VIM-1 IC50
[13] = IMP-1 enzyme, CCF2-FA fluorescence assay
[14] = Serratia marcescens expressing IMP-1 (CL5741), 95% growth inhibition
[15] = Klebsiella pneumoniae expressing VIM-1 (IHMA599644), 95% growth inhibition
[16] = Escherichia coli expressing NDM-1 (CLB30016), 95% growth inhibition
[17] = NDM-1 enzyme, CCF2-FA fluorescence assay
[18] = VIM-1 enzyme, CCF2-FA fluorescence assay, read-out: VIM-1 IC50
[19] = fluorescence assay with CCF2-FA substrate
[20] = VIM-1 IC50, fluorescence assay with CCF2-FA substrate
[21] = fluorescence assay with CCF2-FA substrate, read-out: VIM-1 IC50
[22] = CL5741 (IMP-1), 95% inhibition of bacterial growth
[23] = IHMA599644 (VIM-1), 95% inhibition of bacterial growth
[24] = CLB30016 (NDM-1), 95% inhibition of bacterial growth

Chain of IMP-1 (P52699 whole entry, looked up): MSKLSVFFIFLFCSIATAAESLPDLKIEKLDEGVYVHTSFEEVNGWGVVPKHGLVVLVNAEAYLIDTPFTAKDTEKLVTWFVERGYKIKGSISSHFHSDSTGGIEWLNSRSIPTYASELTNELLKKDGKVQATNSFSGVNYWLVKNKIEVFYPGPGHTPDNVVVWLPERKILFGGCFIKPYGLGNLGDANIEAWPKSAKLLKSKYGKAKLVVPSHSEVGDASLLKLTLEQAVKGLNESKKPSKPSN

Compound	IC50 [1, 7] [nM]	Serratia marcescens MITC95 [2, 8] [µM]	Klebsiella pneumoniae MITC95 [3, 9] [µM]	Escherichia coli MITC95 [4, 10] [µM]	IC50 [5, 11] [nM]	IC50 [6, 12] [nM]	IC50 [1, 19] [nM]	Serratia marcescens expressing IMP-1 (CL5741) MITC95 [2] [µM]	Klebsiella pneumoniae expressing VIM-1 (IHMA 599644) MITC95 [3] [µM]	Escherichia coli expressing NDM-1 (CLB 30016) MITC95 [4] [µM]	IC50 [5, 19] [nM]	IC50 [6, 21] [nM]	further results
Nc1nc2cc(F)cc(-c3ccc(C(F)(F)F)c(S(N)(=O)=O)c3-c3nnn[nH]3)c2[nH]1 [Example 566, 3-(2-amino-5-fluoro-1H-benzo[d]imidazol-7-yl)-2-(1H-tetrazol-5-yl)-6-(trifluoromethyl)benzenesulfonamide]	2.68	3.125	3.125	0.7813	0.233	0.508	–	–	–	–	–	–	–
Nc1nc2cccc(-c3ccc(C(F)(F)F)c(S(N)(=O)=O)c3-c3nnn[nH]3)c2[nH]1 [Example 551, 3-(2-amino-3H-benzimidazol-4-yl)-2-(1H-tetrazol-5-yl)-6-(trifluoromethyl)benzenesulfonamide]	3.8	0.7813	1.563	0.3906	0.142	0.26	–	–	–	–	–	–	–
NS(=O)(=O)c1c(C(F)(F)F)ccc(CC[C@H]2CC[C@H](N)CC2)c1-c1nn[nH]n1 [Example 431, 3-(2-((1r,4s)-4-aminocyclohexyl)ethyl)-2-(2H-tetrazol-5-yl)-6-(trifluoromethyl)benzenesulfonamide]	–	–	–	–	–	–	–	–	–	–	–	–	IC50 [1, 13]: 3.75 nM; Serratia marcescens MITC95 [2, 14]: 0.125 µM; Klebsiella pneumoniae MITC95 [3, 15]: 1.531 µM; Escherichia coli MITC95 [4, 16]: 2.563 µM; IC50 [5, 17]: 17.9 nM; IC50 [6, 18]: 0.432 nM
CN(Cc1ccccc1)c1ccnc(S(N)(=O)=O)c1-c1nnn[nH]1 [Example 229, 4-[benzyl(methyl)amino]-3-(1H-tetrazol-5-yl)pyridine-2-sulfonamide]	–	–	–	–	–	–	466	50	6.25	12.5	204	–	IC50 [6, 20]: 2.22 nM
NS(=O)(=O)c1nccc(N2CCC(Cc3ccncc3)CC2)c1-c1nnn[nH]1 [Example 238, 4-[4-(pyridin-4-ylmethyl)piperidin-1-yl]-3-(1H-tetrazol-5-yl)pyridine-2-sulfonamide]	–	–	–	–	–	–	188	9.375	125	3.125	30.8	–	IC50 [6, 20]: 96.9 nM
NS(=O)(=O)c1nccc(N2CCCC(c3ccccn3)C2)c1-c1nnn[nH]1 (stereo not drawn) [Example 220, 4-(3-pyridin-2-ylpiperidin-1-yl)-3-(1H-tetrazol-5-yl)pyridine-2-sulfonamide]	–	–	–	–	–	–	2390	75	>200	12.5	22.8	234	–
N#Cc1cc(-c2ccc(C(F)(F)F)c(S(N)(=O)=O)c2-c2nnn[nH]2)c2[nH]c(N)nc2c1 [Example 569, 3-(2-amino-5-cyano-1H-benzo[d]imidazol-7-yl)-2-(1H-tetrazol-5-yl)-6-(trifluoromethyl)benzenesulfonamide]	1.62	3.125	6.25	6.25	0.215	0.309	–	–	–	–	–	–	–
NS(=O)(=O)c1nccc(NCCc2ccccc2)c1-c1nnn[nH]1 [Example 237, 4-[(2-phenylethyl)amino]-3-(1H-tetrazol-5-yl)pyridine-2-sulfonamide]	–	–	–	–	–	–	581	125	>200	18.75	102	239	–
NC1CCCC12CCN(c1ccc(C(F)(F)F)c(S(N)(=O)=O)c1-c1nnn[nH]1)CC2 (stereo not drawn) [Example 761, 3-(1-amino-8-azaspiro[4.5]dec-8-yl)-2-(1H-tetrazol-5-yl)-6-(trifluoromethyl) benzenesulfonamide]	–	–	–	–	–	–	104	–	–	–	46	48.3	Serratia marcescens MITC95 [2, 22]: 100 µM; Klebsiella pneumoniae MITC95 [3, 23]: >200 µM; Escherichia coli MITC95 [4, 24]: 100 µM
NS(=O)(=O)c1c(C2CC2)ccc(-c2cccc3ncccc23)c1-c1nn[nH]n1 [Example 529, 6-Cyclopropyl-3-(quinolin-5-yl)-2-(2H-tetrazol-5-yl)benzenesulfonamide]	6.3	0.7813	9.375	3.906	2.2	0.991	–	–	–	–	–	–	–
Cc1nc(N)ccc1Cc1cccc(S(N)(=O)=O)c1-c1nn[nH]n1 [Example 572, 3-((6-amino-2-methylpyridin-3-yl)methyl)-2-(2H-tetrazol-5-yl)benzenesulfonamide]	701	25	6.25	0.5859	14.7	8.98	–	–	–	–	–	–	–
NS(=O)(=O)c1cccc(-c2ccc(CN3CC(F)(F)C3)cc2)c1-c1nnn[nH]1 [Example 372, 4′-[(3,3-difluoroazetidin-1-yl)methyl]-2-(1H-tetrazol-5-yl)biphenyl-3-sulfonamide]	–	–	–	–	–	–	–	–	–	–	–	–	IC50 [1, 13]: 15.7 nM; Serratia marcescens MITC95 [2, 14]: 1.563 µM; Klebsiella pneumoniae MITC95 [3, 15]: >200 µM; Escherichia coli MITC95 [4, 16]: 7.813 µM; IC50 [5, 17]: 4.91 nM; IC50 [6, 18]: 470 nM
NS(=O)(=O)c1cccc(-c2cnc(NC3CC3)nc2)c1-c1nnn[nH]1 [Example 123, 3-(2-(cyclopropylamino)pyrimidin-5-yl)-2-(1H-tetrazol-5-yl)benzenesulfonamide]	–	–	–	–	–	–	415	18.75	>200	1.563	8.3	309	–
C[N+]1(C)CCC(c2ccc(-c3ccc(C(F)(F)F)c(S(N)(=O)=O)c3-c3nn[nH]n3)cc2)C1 (stereo not drawn) [Example 444, 1,1-dimethyl-3-(3′-sulfamoyl-2′-(2H-tetrazol-5-yl)-4′-(trifluoromethyl)-[1,1′-biphenyl]-4-yl)pyrrolidin-1-ium]	–	–	–	–	–	–	–	–	–	–	–	–	IC50 [1, 13]: 3.27 nM; Serratia marcescens MITC95 [2, 14]: 0.3906 µM; Klebsiella pneumoniae MITC95 [3, 15]: 4.688 µM; Escherichia coli MITC95 [4, 16]: 2.344 µM; IC50 [5, 17]: 2.5 nM; IC50 [6, 18]: 1.35 nM
NCC1CN(C2CCN(c3ccc(C(F)(F)F)c(S(N)(=O)=O)c3-c3nnn[nH]3)CC2)C1 [Example 762, 3-{4-[3-(aminomethyl)azetidin-1-yl]piperidin-1-yl}-2-(1H-tetrazol-5-yl)-6-(trifluoromethyl) benzenesulfonamide]	–	–	–	–	–	–	123	–	–	–	73.2	14.2	Serratia marcescens MITC95 [2, 22]: 6.25 µM; Klebsiella pneumoniae MITC95 [3, 23]: 6.25 µM; Escherichia coli MITC95 [4, 24]: 3.125 µM
NC1CC(N[C@H]2CC[C@H](c3ccc(C(F)(F)F)c(S(N)(=O)=O)c3-c3nnn[nH]3)CC2)C1 (stereo partly drawn) [Example 702, 3-{4-[(3-aminocyclobutyl)amino]cyclohexyl}-2-(1H-tetrazol-5-yl)-6-(trifluoromethyl)benzene sulfonamide]	25.2	3.125	1.563	0.7813	4.02	–	–	–	–	–	–	–	IC50 ([6]; VIM-1 IC50, VIM-1 enzyme, CCF2-FA substrate): 2.25 nM

From US9708336B2, “Metallo-beta-lactamase inhibitors” (priority 2014, dated 2017)
